In patent publication US20100137449A1, “SUBSTITUTED 1,3-CYCLOPENTADIONE MULTI-TARGET PROTEIN KINASE MODULATORS OF CANCER, ANGIOGENESIS AND THE INFLAMMATORY PATHWAYS ASSOCIATED THEREWITH” (METAPROTEOMICS, LLC, priority 2007, published 2010):
Marks after values point to notes of the source that are not given here.

Experiments:
[1] = target: T1, Bmx(h) (Homo sapiens, UniProt P51813); experiment: KinaseProfiler Assay
T1 sequence (P51813 1-675): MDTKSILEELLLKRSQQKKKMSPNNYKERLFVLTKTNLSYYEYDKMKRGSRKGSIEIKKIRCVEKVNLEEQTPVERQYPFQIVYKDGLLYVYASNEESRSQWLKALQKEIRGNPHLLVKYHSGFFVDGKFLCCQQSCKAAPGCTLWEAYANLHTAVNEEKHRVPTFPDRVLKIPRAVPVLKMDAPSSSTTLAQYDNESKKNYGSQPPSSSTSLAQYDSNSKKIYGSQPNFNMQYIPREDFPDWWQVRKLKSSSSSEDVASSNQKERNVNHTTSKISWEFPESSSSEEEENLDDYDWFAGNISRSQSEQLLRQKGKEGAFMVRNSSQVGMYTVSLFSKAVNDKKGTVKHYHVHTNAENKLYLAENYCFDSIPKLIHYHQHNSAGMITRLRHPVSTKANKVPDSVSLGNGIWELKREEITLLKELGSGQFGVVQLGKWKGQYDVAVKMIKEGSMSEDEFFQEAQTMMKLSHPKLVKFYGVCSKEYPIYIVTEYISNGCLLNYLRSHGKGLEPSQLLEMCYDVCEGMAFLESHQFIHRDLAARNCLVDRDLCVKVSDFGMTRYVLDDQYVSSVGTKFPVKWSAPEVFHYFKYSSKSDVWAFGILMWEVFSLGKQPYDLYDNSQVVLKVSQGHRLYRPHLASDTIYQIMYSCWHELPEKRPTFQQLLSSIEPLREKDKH

[2] = system: HUVEC; experiment: Migration wound healing assay; type: cell-based
Description: Methodology—A day before the assay, 5×10^5 endothelial cells were plated in E-well plates and grown in adequate complete medium over night. Confluent HUVEC monolayers were then scraped to create a wound. Cells were the treated with 20 ug/ml of each drug. After wounding and 6 hours later, two different fields of each wound were photographed with a phase-contrast microscope. Measurements of the width of each wound were made in each experimental condition. At the start of the experiment, the wound size was measured and scored as 100%. After 6 hours, the width of the remaining wound was measured and average percent wound closure was calculated.

[3] = system: rat aortic rings; experiment: Ex vivo rat aortic ring angiogenesis assay; type: cell-based
Description: These ex vivo organo-typic cultures were treated with single compound. […] Neovascularization was evaluated as a marker of the observed angiogenic response.
Statistical analysis—Analysis of variance was performed on the six observations per treatment for the controls and two test concentrations after normalizing to the dimethyl sulfoxide control. The probability of a type I error was set at the nominal five percent level.

[4] = system: endothelial cells; experiment: Proliferation assay (DNA content, Hoechst 33258); type: cell-based
Description: Methodology—A day before the assay, 1×10^4 endothelial cells were plated in quadruplicate in 24-well plates ad grown in adequate complete medium over night. Cells were then treated with 10 ug/ml and 20 ug/ml of each drug. […] The dilutions and concentrations of the dyes were chosen to yield appropriate dye/base pair ratios that are crucial to obtain maximal linearity and sensitivity of the DNA quantification assays. After an incubation time of ˜10 min, fluorescence intensities were measure. All investigations were generally performed at room temperature with the solutions protected from light. Spectrofluorimetric measurements were performed with Spectramax Gemini XS. […] Florescence values were converted into DNA concentrations according to the fluorescence intensities of DNA standard calibration curves.

CC(C)CCC(=O)[C@]1(O)C(O)=C(C(=O)C(C)C)C(=O)[C@H]1CCC(C)C [TH1, tetrahydro-isocohumulone]
activity in inhibiting BMX in comparison with TH4 and TH5 ([1]; 100 μg/ml): about 50%

CCC(C)C(=O)C1=C(O)[C@@](O)(C(=O)CCC(C)C)[C@H](CCC(C)C)C1=O (stereo partly shown) [TH4, tetrahydro-isoadhumulone]
inhibition of BMX kinase ([1]; 100 μg/mL): inhibit it almost completely

COc1cc(O)c(CC=C(C)C)c(O)c1C(=O)/C=C/c1ccc(O)cc1 [Xanthohumol, xanthohumol]
Relative Percent Wound Closure at Six Hours vs Dimethyl Sulfoxide Controls ([2]; 20 μg/mL, HUVEC, six hours): 45** Percent
wound closure (in words) ([2]; 20 ug/ml, 6 hours): most active of the test materials
Summary of Effects: Migration ([2]; summary table): −60%
Relative Number of Vessels vs Dimethyl Sulfoxide Controls ([3]; 5.0 μg/mL): 95.9
Relative Number of Vessels vs Dimethyl Sulfoxide Controls ([3]; 20 μg/mL): 100
vessel growth (in words) ([3]; 20 and 5 μg/mL): not active
Summary of Effects: Aortic Angiogenesis ([3]; summary table): Not Active
Relative DNA Content vs Dimethyl Sulfoxide Controls ([4]; 24 Hours, 10 μg/mL): 95
Relative DNA Content vs Dimethyl Sulfoxide Controls ([4]; 24 Hours, 20 μg/mL): 66**
Relative DNA Content vs Dimethyl Sulfoxide Controls ([4]; 48 Hours, 10 μg/mL): 82**
Relative DNA Content vs Dimethyl Sulfoxide Controls ([4]; 48 Hours, 20 μg/mL): 57**
Relative DNA Content vs Dimethyl Sulfoxide Controls ([4]; 72 Hours, 10 μg/mL): 71**
Relative DNA Content vs Dimethyl Sulfoxide Controls ([4]; 72 Hours, 20 μg/mL): 42**
Summary of Effects: Proliferation ([4]; summary table): −60%
